# What was measured:
# Pim 1 = Pim 1 (Homo sapiens, UniProt P11309); experiment: Pim 1 AlphaScreen assay (high ATP)
# [1] = system: KMS11 (human myeloma cell line); experiment: Cell Proliferation Assay (CellTiter-Glo, 3 days); type: cell-based; settings: KMS-11, 72 h, KMS11-luc cells
# Procedure, shortened: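 EC50 from CellTiter-Glo luminescence after 3-day, 37° C compound treatment of KMS11 cells seeded at 2000 per well in IMDM plus 10% FBS.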
# Pim 2 = Pim 2 (Homo sapiens, UniProt Q9P1W9); experiment: Pim 2 AlphaScreen assay (high ATP)
# Chain of Pim 2 (Q9P1W9 whole entry): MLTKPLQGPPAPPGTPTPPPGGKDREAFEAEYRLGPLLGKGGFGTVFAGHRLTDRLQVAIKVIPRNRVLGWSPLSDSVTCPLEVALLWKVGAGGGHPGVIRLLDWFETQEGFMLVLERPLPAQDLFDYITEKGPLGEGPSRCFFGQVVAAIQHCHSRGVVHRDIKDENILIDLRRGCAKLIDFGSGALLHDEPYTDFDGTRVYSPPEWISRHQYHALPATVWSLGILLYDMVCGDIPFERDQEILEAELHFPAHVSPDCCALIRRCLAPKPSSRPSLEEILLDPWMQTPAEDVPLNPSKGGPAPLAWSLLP
# Procedure: The activity of Pim 1, Pim 2, & Pim 3 is measured using a homogeneous bead based system quantifying the amount of phosphorylated peptide substrate resulting from kinase-catalyzed phosphoryl transfer to a peptide substrate. Compounds to be tested are dissolved in 100% DMSO and directly distributed to a white 384-well plate at 0.25 μl per well. […] This is followed by the addition of 5 μl/well of Pim 1, Pim 2 or Pim 3 kinase in assay buffer (concentrations described below). Final assay concentrations (described below) are in 2.5% DMSO. The reactions are performed for ˜2 hours, then stopped by the addition of 10 μl of 0.75 μg/ml anti-phospho Ser/Thr antibody (Cell Signaling), 10 μg/ml Protein A AlphaScreen beads (Perkin Elmer), and 10 μg/ml streptavidin coated AlphaScreen beads in stop/detection buffer (50 mM EDTA, 95 mM Tris, pH=7.5, 0.01% Tween-20). The stopped reactions are incubated overnight in the dark. The phosphorylated peptide is detected via an oxygen anion initiated chemiluminescence/fluorescence cascade using the Envision plate reader (Perkin Elmer).
# Pim 3 = Pim 3 (Homo sapiens, UniProt Q86V86); experiment: Pim 3 AlphaScreen assay (high ATP)
# Chain of Pim 1 (P11309 whole entry): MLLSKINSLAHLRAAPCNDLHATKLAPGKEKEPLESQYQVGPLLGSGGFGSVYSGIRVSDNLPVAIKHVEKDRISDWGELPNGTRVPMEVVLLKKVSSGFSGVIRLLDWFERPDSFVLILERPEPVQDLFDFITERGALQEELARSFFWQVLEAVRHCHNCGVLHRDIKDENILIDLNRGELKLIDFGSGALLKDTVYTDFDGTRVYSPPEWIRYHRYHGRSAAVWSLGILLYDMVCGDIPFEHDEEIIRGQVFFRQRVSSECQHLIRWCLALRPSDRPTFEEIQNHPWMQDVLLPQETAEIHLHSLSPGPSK
Structure (SMILES),IC50 (Pim 1),EC50 [1],IC50 (Pim 2),IC50 (Pim 3)
"CCC(=O)c1cc(F)c(-c2nc(C(=O)Nc3cnccc3N3C[C@@H](N)[C@H](O)[C@@H](C)C3)ccc2F)c(F)c1 [Example 104, N-(4-((3R,4R,5S)-3-amino-4-hydroxy-5-methylpiperidin-1-yl)pyridin-3-yl)-6-(2,6-difluoro-4-propionylphenyl)-5-fluoropicolinamide]",0.02 nM,19 nM,0.95 nM,0.45 nM
"C[C@H]1CN(c2ccncc2NC(=O)c2ccc(F)c(-c3c(F)cc(O[C@@H]4CCCOC4)cc3F)n2)C[C@@H](N)[C@@H]1O [Example 105, N-(4-((3R,4R,5S)-3-amino-4-hydroxy-5-methylpiperidin-1-yl)pyridin-3-yl)-6-(2,6-difluoro-4-((R)-tetrahydro-2H-pyran-3-yloxy)phenyl)-5-fluoropicolinamide]",0.01 nM,96 nM,0.64 nM,0.17 nM
"C[C@H]1CN(c2ccncc2NC(=O)c2ccc(F)c(-c3c(F)cc(O[C@H]4CCCOC4)cc3F)n2)C[C@@H](N)[C@@H]1O [Example 106, N-(4-((3R,4R,5S)-3-amino-4-hydroxy-5-methylpiperidin-1-yl)pyridin-3-yl)-6-(2,6-difluoro-4-((S)-tetrahydro-2H-pyran-3-yloxy)phenyl)-5-fluoropicolinamide]",0.01 nM,154 nM,0.52 nM,0.13 nM
"C[C@H]1CN(c2ccncc2NC(=O)c2nc(-c3c(F)cc(C4COC4)cc3F)c(F)cc2N)C[C@@H](N)[C@@H]1O [Example 107, 3-amino-N-(4-((3R,4R,5S)-3-amino-4-hydroxy-5-methylpiperidin-1-yl)pyridin-3-yl)-6-(2,6-difluoro-4-(oxetan-3-yl)phenyl)-5-fluoropicolinamide]",0.02 nM,157 nM,1.03 nM,0.31 nM
"COCCc1cc(F)c(-c2nc(C(=O)Nc3cnccc3[C@H]3C[C@@H](N)[C@H](O)[C@@H](C)C3)ccc2F)c(F)c1 [Example 108, N-(4-((1R,3R,4R,5S)-3-amino-4-hydroxy-5-methylcyclohexyl)pyridin-3-yl)-6-(2,6-difluoro-4-(2-methoxyethyl)phenyl)-5-fluoropicolinamide]",0.04 nM,906 nM,2.93 nM,1.19 nM
"COCCc1cc(F)c(-c2nc(C(=O)Nc3cnccc3N3C[C@@H](N)[C@H](O)[C@@H](C)C3)ccc2F)c(F)c1 [Example 109, N-(4-((3R,4R,5S)-3-amino-4-hydroxy-5-methylpiperidin-1-yl)pyridin-3-yl)-6-(2,6-difluoro-4-(2-methoxyethyl)phenyl)-5-fluoropicolinamide]",0.01 nM,28 nM,0.38 nM,0.14 nM
"CC(C)[C@@H]1C[C@H](N)C[C@H](c2ccncc2NC(=O)c2ccc(F)c(-c3c(F)cc(C(C)(C)O)cc3F)n2)C1 [Example 119, N-(4-((1R,3S,5S)-3-amino-5-isopropylcyclohexyl)pyridin-3-yl)-6-(2,6-difluoro-4-(2-hydroxypropan-2-yl)phenyl)-5-fluoropicolinamide]",0.01 nM,17 nM,1.36 nM,0.42 nM
"COCCOc1cc(F)c(-c2nc(C(=O)Nc3cnccc3[C@H]3C[C@@H](N)[C@H](O)[C@@H](C)C3)c(N)cc2F)c(F)c1 [Example 120, 3-amino-N-(4-((1R,3R,4R,5S)-3-amino-4-hydroxy-5-methylcyclohexyl)pyridin-3-yl)-6-(2,6-difluoro-4-(2-methoxyethoxy)phenyl)-5-fluoropicolinamide]",0.03 nM,32 nM,3.78 nM,0.51 nM
"Cc1cc(F)c(-c2nc(C(=O)Nc3cnccc3[C@H]3C[C@@H](N)C[C@@H](C(C)C)C3)ccc2F)c(F)c1 [Example 123, N-(4-((1R,3S,5S)-3-amino-5-isopropylcyclohexyl)pyridin-3-yl)-6-(2,6-difluoro-4-methylphenyl)-5-fluoropicolinamide]",0.02 nM,59 nM,0.8 nM,0.58 nM
"COCCOc1cc(F)c(-c2nc(C(=O)Nc3cnccc3[C@H]3C[C@@H](N)[C@@H](O)[C@@H](C)C3)ccc2F)c(F)c1 [Example 124, N-(4-((1R,3R,4S,5S)-3-amino-4-hydroxy-5-methylcyclohexyl)pyridin-3-yl)-6-(2,6-difluoro-4-(2-methoxyethoxy)phenyl)-5-fluoropicolinamide]",0.06 nM,119 nM,7.18 nM,1.72 nM
"CC(C)Oc1cc(F)c(-c2nc(C(=O)Nc3cnccc3[C@H]3C[C@@H](N)[C@@H](O)[C@@H](C)C3)ccc2F)c(F)c1 [Example 125, N-(4-((1R,3R,4S,5S)-3-amino-4-hydroxy-5-methylcyclohexyl)pyridin-3-yl)-6-(2,6-difluoro-4-isopropoxyphenyl)-5-fluoropicolinamide]",0.03 nM,100 nM,1.82 nM,0.96 nM
"C[C@@H]1C[C@H](N)C[C@H](c2ccncc2NC(=O)c2ccc(F)c(-c3c(F)cc(C4(F)CCOCC4)cc3F)n2)C1 [Example 126, N-(4-((1R,3S,5S)-3-amino-5-methylcyclohexyl)pyridin-3-yl)-6-(216-difluoro-4-(4-fluorotetrahydro-2H-pyran-4-yl)phenyl)-5-fluoropicolinamide]",0.02 nM,64 nM,1.33 nM,1.15 nM
"COC(C)(C)c1cc(F)c(-c2nc(C(=O)Nc3cnccc3N3C[C@@H](N)[C@H](O)[C@@H](C)C3)ccc2F)c(F)c1 [Example 130, N-(4-((3R,4R,5S)-3-amino-4-hydroxy-5-methylpiperidin-1-yl)pyridin-3-yl)-6-(2,6-difluoro-4-(2-methoxypropan-2-yl)phenyl)-5-fluoropicolinamide]",0.02 nM,24 nM,1.36 nM,0.42 nM
"C[C@H]1CN(c2ccncc2NC(=O)c2ccc(F)c(-c3c(F)cc(CC(C)(C)O)cc3F)n2)C[C@@H](N)[C@@H]1O [Example 131, N-(4-((3R,4R,5S)-3-amino-4-hydroxy-5-methylpiperidin-1-yl)pyridin-3-yl)-6-(2,6-difluoro-4-(2-hydroxy-2-methylpropyl)phenyl)-5-fluoropicolinamide]",0.01 nM,25 nM,1.31 nM,0.18 nM
"C[C@@H]1C[C@H](N)C[C@H](c2ccncc2NC(=O)c2ccc(F)c(-c3c(F)cc(OCCN4CCCC4=O)cc3F)n2)C1 [Example 132, N-(4-((1R,3S,5S)-3-amino-5-methylcyclohexyl)pyridin-3-yl)-6-(2,6-difluoro-4-(2-(2-oxopyrrolidin-1-yl)ethoxy)phenyl)-5-fluoropicolinamide]",0.02 nM,206 nM,4.78 nM,1.1 nM
"CC(C)[C@@H]1C[C@H](N)C[C@H](c2ccncc2NC(=O)c2ccc(F)c(-c3c(F)cc(C4(O)CCC4)cc3F)n2)C1 [Example 133, N-(4-((1R,3S,5S)-3-amino-5-isopropylcyclohexyl)pyridin-3-yl)-6-(2,6-difluoro-4-(1-hydroxycyclobulyl)phenyl)-5-fluoropicolinamide]",0.02 nM,31 nM,1.77 nM,0.7 nM
"CCOCc1cc(F)c(-c2nc(C(=O)Nc3cnccc3[C@H]3C[C@@H](N)[C@@H](O)[C@@H](C)C3)ccc2F)c(F)c1 [Example 134, N-(4-((1R,3R,4S,5S)-3-amino-4-hydroxy-5-methylcyclohexyl)pyridin-3-yl)-6-(4-(ethoxymethyl)-2,6-difluorophenyl)-5-fluoropicolinamide]",0.13 nM,228 nM,9.57 nM,4.89 nM
"C[C@@H]1C[C@H](N)C[C@H](c2ccncc2NC(=O)c2ccc(F)c(-c3c(F)cc(C4(F)COC4)cc3F)n2)C1 [Example 135, N-(4-((1R,3S,5S)-3-amino-5-methylcyclohexyl)pyridin-3-yl)-6-(2,6-difluoro-4-(3-fluorooxetan-3-yl)phenyl)-5-fluoropicolinamide]",0.05 nM,583 nM,4.54 nM,4.45 nM
"C[C@H]1C[C@@H](c2ccncc2NC(=O)c2ccc(F)c(-c3c(F)cc(C4(F)COC4)cc3F)n2)C[C@@H](N)[C@@H]1O [Example 136, N-(4-((1R,3R,4R,5S)-3-amino-4-hydroxy-5-methylcyclohexyl)pyridin-3-yl)-6-(2,6-difluoro-4-(3-fluorooxetan-3-yl)phenyl)-5-fluoropicolinamide]",0.08 nM,225 nM,5.59 nM,4.8 nM
"C[C@H]1C[C@@H](c2ccncc2NC(=O)c2ccc(F)c(-c3c(F)cc(C4(F)COC4)cc3F)n2)C[C@@H](N)[C@H]1O [Example 137, N-(4-((1R,3R,4S,5S)-3-amino-4-hydroxy-5-methylcyclohexyl)pyridin-3-yl)-6-(2,6-difluoro-4-(3-fluorooxetan-3-yl)phenyl)-5-fluoropicolinamide]",0.08 nM,549 nM,10.3 nM,6.9 nM
"C[C@H]1C[C@@H](c2ccncc2NC(=O)c2ccc(F)c(-c3c(F)cc(COC4CCOCC4)cc3F)n2)C[C@@H](N)[C@@H]1O [Example 138, N-(4-((1R,3R,4R,5S)-3-amino-4-hydroxy-5-methylcyclohexyl)pyridin-3-yl)-6-(2,6-difluoro-4-((tetrahydro-2H-pyran-4-yloxy)methyl)phenyl)-5-fluoropicolinamide]",0.08 nM,324 nM,3.3 nM,2.39 nM

# From patent US20120225062A1 (priority 2011, published 2012)
